What was measured:
Test in all cases: relative viability (nuclei count vs DMSO), 5 days (fraction); higher = more cells survive
Pemetrexed + Tozasertib = compound: Nc1nc2[nH]cc(CCc3ccc(C(=O)N[C@@H](CCC(=O)O)C(=O)O)cc3)c2c(=O)[nH]1 [Pemetrexed] + Cc1cc(Nc2cc(N3CCN(C)CC3)nc(Sc3ccc(NC(=O)C4CC4)cc3)n2)n[nH]1 [Tozasertib] (partner 0.1 µM)
Outline: (§1)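 For relative viability, nuclei counts in treated wells were divided by those in vehicle wells. Lung cancer cell lines had been pin-tool dosed in 1536-well plates the day after seeding and cultured for 5 days, then fixed and stained in one step (final 0.05% Triton X-100, 1% formaldehyde, 1 ug/ml Hoechst) and imaged at 4×. Doses were one drug alone or a fixed anchor-drug dose plus five library-drug doses (not always all listed) in √10 steps, and values are duplicate-plate medians.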

Pemetrexed + Olaparib = compound: Nc1nc2[nH]cc(CCc3ccc(C(=O)N[C@@H](CCC(=O)O)C(=O)O)cc3)c2c(=O)[nH]1 [Pemetrexed] + O=C(c1cc(Cc2n[nH]c(=O)c3ccccc23)ccc1F)N1CCN(C(=O)C2CC2)CC1 [Olaparib] (partner 8 µM)
Outline: as §1

Idelalisib + Foretinib = compound: CC[C@H](Nc1ncnc2[nH]cnc12)c1nc2cccc(F)c2c(=O)n1-c1ccccc1 [Idelalisib] + COc1cc2c(Oc3ccc(NC(=O)C4(C(=O)Nc5ccc(F)cc5)CC4)cc3F)ccnc2cc1OCCCN1CCOCC1 [Foretinib] (partner 0.25 µM)
Outline: as §1

Pemetrexed + Trametinib = compound: Nc1nc2[nH]cc(CCc3ccc(C(=O)N[C@@H](CCC(=O)O)C(=O)O)cc3)c2c(=O)[nH]1 [Pemetrexed] + CC(=O)Nc1cccc(-n2c(=O)n(C3CC3)c(=O)c3c(Nc4ccc(I)cc4F)n(C)c(=O)c(C)c32)c1 [Trametinib] (partner 0.02 µM)
Outline: as §1

Cell Line | relative viability (Pemetrexed + Tozasertib; first compound 0.002 µM) | relative viability (Pemetrexed + Tozasertib; first compound 0.006325 µM) | relative viability (Pemetrexed + Tozasertib; first compound 0.02 µM) | relative viability (Pemetrexed + Tozasertib; first compound 0.06325 µM) | relative viability (Pemetrexed + Tozasertib; first compound 0.2 µM) | relative viability (Pemetrexed + Olaparib; first compound 0.002 µM) | relative viability (Pemetrexed + Olaparib; first compound 0.006325 µM) | relative viability (Pemetrexed + Olaparib; first compound 0.02 µM) | relative viability (Pemetrexed + Olaparib; first compound 0.06325 µM) | relative viability (Pemetrexed + Olaparib; first compound 0.2 µM) | relative viability (Idelalisib + Foretinib; first compound 0.04 µM) | relative viability (Idelalisib + Foretinib; first compound 0.1265 µM) | relative viability (Idelalisib + Foretinib; first compound 0.4 µM) | relative viability (Idelalisib + Foretinib; first compound 1.265 µM) | relative viability (Idelalisib + Foretinib; first compound 4 µM) | relative viability (Pemetrexed + Trametinib; first compound 0.002 µM) | relative viability (Pemetrexed + Trametinib; first compound 0.006325 µM) | relative viability (Pemetrexed + Trametinib; first compound 0.02 µM) | relative viability (Pemetrexed + Trametinib; first compound 0.06325 µM) | relative viability (Pemetrexed + Trametinib; first compound 0.2 µM)
NCI-H3122 | 0.404 | 0.371 | 0.367 | 0.198 | 0.118 | 0.592 | 0.636 | 0.678 | 0.567 | 0.513 | 0.963 | 0.939 | 1 | 0.982 | 0.836 | 0.255 | 0.236 | 0.252 | 0.218 | 0.202
NCI-H838 | 0.229 | 0.276 | 0.295 | 0.265 | 0.203 | 0.755 | 0.75 | 0.837 | 0.471 | 0.216 | 1.08 | 0.947 | 0.912 | 0.931 | 0.821 | 0.555 | 0.53 | 0.664 | 0.393 | 0.169
NCI-H1755 | 0.575 | 0.571 | 0.619 | 0.615 | 0.458 | 0.777 | 0.857 | 0.875 | 0.89 | 0.781 | 0.951 | 0.915 | 0.889 | 0.843 | 0.9 | 0.737 | 0.809 | 0.775 | 0.731 | 0.732
HCC-15 | 0.431 | 0.394 | 0.497 | 0.407 | 0.205 | 0.644 | 0.724 | 0.804 | 0.601 | 0.353 | 1.09 | 1.02 | 0.975 | 1.18 | 0.94 | 0.371 | 0.344 | 0.392 | 0.336 | 0.218
NCI-H2087 | 0.257 | 0.276 | 0.287 | 0.297 | 0.232 | 0.595 | 0.585 | 0.626 | 0.534 | 0.539 | 1.28 | 1.04 | 0.842 | 0.908 | 0.579 | 0.145 | 0.173 | 0.215 | 0.212 | 0.249
LCLC-103H | 0.451 | 0.366 | 0.515 | 0.443 | 0.443 | 0.732 | 0.707 | 0.791 | 0.78 | 0.679 | 0.727 | 0.728 | 0.65 | 0.829 | 0.582 | 0.659 | 0.639 | 0.734 | 0.698 | 0.677
NCI-H1650 | 0.388 | 0.353 | 0.47 | 0.304 | 0.298 | 0.676 | 0.93 | 0.887 | 0.758 | 0.345 | 1.33 | 1.42 | 0.944 | 0.864 | 0.917 | 0.496 | 0.534 | 0.6 | 0.296 | 0.229
LK-2 | 0.191 | 0.148 | 0.176 | 0.197 | 0.165 | 0.761 | 0.817 | 0.745 | 0.519 | 0.622 | 1.75 | 1.16 | – | 1.29 | 0.836 | 0.649 | 0.568 | 0.697 | 0.737 | 0.659
NCI-H2342 | 0.454 | 0.497 | 0.573 | 0.589 | 0.486 | 0.409 | 0.407 | 0.467 | 0.452 | 0.424 | 1.02 | 1.11 | 0.886 | 0.896 | 0.729 | 0.763 | 0.757 | 0.773 | 0.857 | 0.841
ChaGo-K-1 | 0.24 | 0.218 | 0.25 | 0.212 | 0.176 | 0.483 | 0.423 | 0.464 | 0.383 | 0.259 | 1.02 | 0.919 | 0.766 | 0.931 | 0.82 | 0.902 | 0.848 | 0.871 | 0.662 | 0.31
HCC-78 | 0.312 | 0.32 | 0.378 | 0.308 | 0.259 | – | 0.792 | 0.662 | 0.29 | 0.233 | 0.612 | 0.594 | 0.462 | 0.528 | 0.434 | – | 0.671 | 0.676 | 0.382 | 0.356
NCI-H1666 | 0.582 | 0.554 | 0.633 | 0.593 | 0.598 | 0.765 | 0.785 | 0.787 | 0.728 | 0.694 | 0.825 | 1.07 | 0.961 | 1.01 | 0.947 | 0.845 | 0.826 | 0.926 | 0.873 | 0.784
EKVX | 0.373 | 0.398 | 0.37 | 0.367 | 0.263 | 0.794 | 0.796 | 0.884 | 0.883 | 0.499 | 0.826 | 0.984 | 0.773 | 0.843 | 0.808 | 0.337 | 0.327 | 0.37 | 0.297 | 0.218
COR-L 105 | 0.431 | 0.332 | 0.31 | 0.366 | 0.338 | 0.706 | 0.74 | 0.746 | 0.738 | 0.662 | 1.01 | 1.34 | 0.992 | 1.01 | 0.672 | 0.442 | 0.423 | 0.47 | 0.479 | 0.453
NCI-H322M | 0.513 | 0.505 | 0.486 | 0.504 | 0.452 | 0.682 | 0.763 | 0.752 | 0.84 | 0.736 | 1.22 | 1.1 | 0.792 | 0.841 | 0.908 | 0.511 | 0.478 | 0.503 | 0.456 | 0.551
HARA | 0.13 | 0.0932 | 0.123 | 0.0911 | 0.0832 | 0.758 | 0.859 | 0.834 | 0.606 | 0.182 | 1.24 | 0.934 | 0.776 | 1.04 | 0.746 | 0.592 | 0.395 | 0.797 | 0.41 | 0.17
